One experiment deals with cells. Description: Toxicity to cells of library peptides. It counts as cell-based. Conditions: cyclic peptide library, after optimization process.
Experiment [1] deals with human eukaryotic elongation factor 2 (eEF2) (Homo sapiens, UniProt P13639). The experiment can be described thus: Cyclic peptide library tested for binding to eEF2. Conditions: after optimization process. The source says: Using the technique described in WO 2007/010525, a library of cyclic peptides was generated and tested for binding to human eukaryotic elongation factor 2 (eEF2).

No end group written: not given here.

For the substance “Cys-Ser-Ala-Arg-Trp-Gly-Pro-Ile-Met-Pro-Trp-Cys (CSARWGPIMPWC; also: cyclic, ring type not given here) [GW2]”, the “toxicity to cells (rank among library peptides)” value in the experiment on cells is on record as “most potent peptide”. Also, in experiment [1], the “binding to eEF2 (rank among library peptides)” value was “most potent peptide”.

The values above are taken from patent US20210198319A1, “CYTOTOXIC PEPTIDES AND CONJUGATES THEREOF” (AEBI LTD., priority 2017, published 2021).
